The text below walks through data of patent publication US20240158350A1, “ESTER ANALOGS OF PSILOCIN, PROCESSES FOR THE PREPARATION THEREOF, AND METHODS OF USE” (Invyxis, Inc., priority 2022, published 2024).

Molecules are shown by their SMILES. Like-named read-outs stand apart in the source and are kept apart here.

Series [1] is described as follows: IP-One incubation stability (cell-treated stimulation medium, LC-MS). The series is classed as in vitro ADME. Conditions: 2 μM, 60 min vs T0, 37° C., medium on CHO-K1 cells expressing 5-HT2A. How it is done:
IP-One incubation. CHO-K1 cells expressing recombinant Serotonin receptor 5-HT2A (Perkin Elmer, Waltham, MA), were seeded in 96-well plates (˜80,000 cells/well) and treated with 28 μL (per well) of stimulation medium (IP-One HTRF® kit) containing test compounds (2 μM) for 1 hr in a CO2 incubator (5%) at 37° C. The cell-treated medium from 3 wells were pooled together to provide 40 μL for LC-MS analysis. Aliquots for each compound were collected at time zero (T0, 100% intact test compound) and 60-min. The incubated medium (40 μL) was quenched with 120 μL of acetonitrile containing 0.5 μM glyburide (IS), and the supernatant was collected by centrifugation (2500 rpm, 15 min.). LC-MS was performed using an Agilent MSD (electrospray in positive ionization) equipped with a Kinetic C18 reverse-column. The percent of test compound remaining is calculated using the ratio of the peak areas of intact test compound at 60 min. over T0. The percent of psilocin release is calculated by comparing the peak area of psilocin at 60 min. (for test compound) vs. peak area at T0 (2 μM psilocin). Results are summarized in Table 1, (rel to % parent detected; and % psilocin detected at 1 hr).

Series [2] is described as follows: Stability in fasted state simulated gastric fluid (FaSSGF). The format is in vitro ADME. The conditions noted are these: 37° C., 60 min vs T0. As for the experimental part: Fasted state simulated gastric fluid (FaSSGF). FaSSGF was prepared according to the manufacturer instructions (Biorelevant, UK). Test compounds (2 μL of 200 μM solution) were added to a 96-well plate containing 198 μL FaSSGF per well. The mixture was incubation in a thermomixer at 37° C. for 60 min. Sample aliquots were removed (40 μL, from T0 and 60 min.) and quenched with acetonitrile containing 0.5 μM glyburide (IS), and the supernatant collected by centrifugation (2500 rpm, 15 min.). LC-MS was performed using an Agilent MSD (electrospray in positive ionization) equipped with a Kinetic C18 reverse-column. The percent of test compound remaining was calculated using the ratio of the peak area of intact test compound at 60 min. over T0. The percent of psilocin release was calculated by comparing the peak area of psilocin at 60 min, (for test compound) vs. peak area at T0 (2 μM psilocin).

In series [3] the target is human serotonin 5HT2A receptor (Homo sapiens, UniProt P28223). Description: 5HT2A receptor radioligand displacement assay. Also noted: key to the marks not given beside the values. Conditions: displacement of [3H]-ketanserin or [3H]-LSD, HEK293 membranes. A general note: Displacement assays read how much labelled ligand stays bound in the presence of the test substance.
Chain of human serotonin 5HT2A receptor (P28223 whole entry): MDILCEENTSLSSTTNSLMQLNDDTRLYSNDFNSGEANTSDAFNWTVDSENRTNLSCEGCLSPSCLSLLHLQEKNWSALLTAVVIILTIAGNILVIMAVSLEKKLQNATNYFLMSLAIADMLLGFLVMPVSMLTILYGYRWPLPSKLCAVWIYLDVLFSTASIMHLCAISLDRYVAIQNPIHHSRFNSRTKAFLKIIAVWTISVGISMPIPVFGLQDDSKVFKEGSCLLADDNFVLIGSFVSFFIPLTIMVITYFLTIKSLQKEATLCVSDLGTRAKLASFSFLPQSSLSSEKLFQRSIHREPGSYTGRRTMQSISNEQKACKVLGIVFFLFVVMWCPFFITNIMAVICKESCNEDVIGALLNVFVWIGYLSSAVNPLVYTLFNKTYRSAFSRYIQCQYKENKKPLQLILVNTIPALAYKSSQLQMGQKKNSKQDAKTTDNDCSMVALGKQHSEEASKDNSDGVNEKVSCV
Series [4] is described as follows: Single-dose oral pharmacokinetics in C57BL6 mice (plasma and brain). The series is classed as in vivo. The conditions noted are these: for Cmax: read-out: Parent PK Cmax. How it is done:
The single-dose pharmacokinetics of test compounds were analyzed relative to control (psilocin) in C57BL6 mice via oral (PO) administration. Test compound was dissolved in DMSO and transferred to a 15-mL tube, followed by addition of Tween-80, PEG-400, and water to final volume. The resulting formulation (0.3 mg/mL compound, in DMSO (1%), Tween-80 (5%), and PEG-400 (25%) in water (69%)) was vortexed for 2 min. and mixed by inversion.
Male C57BL6 mice (3× per compound, (at a weight ˜20g)) received a single dose (oral) of test compound at 3.0 mg/kg. Blood samples were collected pre-dose and at 0.083, 0.25, 0.5, 1, 2, 4, 8, 24-hour post-dose to yield approximately 20 μL of pooled plasma (3× mice) per time point. Brain tissues were collected at 2- and 8-hr post-dose. Brain was flushed with saline solution using a perfusion needle through the ascending aorta of the ventricle to remove any remaining blood prior to collection. Plasma and brain homogenate samples were stored at −80° C. prior to extraction for LC-MS/MS analysis.
Samples were analyzed by LC-MS/MS to quantify the amounts of test compound and control (psilocin). The calculation of the pharmacokinetic (PK) parameters (AUCt, AUCinf, Cmax, Tmax, T1/2, and Kel) can be performed using a non-compartmental analysis (trapezoidal method).

Where [5] appears, read: male, C57BL6, mouse, parent compound in brain, 2 h post-dose, 3.0 mg/kg PO, read-out: Parent PK [brain] 2 h.
Setting [6] is: male, C57BL6, mouse, parent compound in plasma, 3.0 mg/kg PO.

In the case of `CN(C)CCc1c[nH]c2cccc(OC(=O)c3ccccc3F)c12` [drawing 47], the “% parent compound” value in series [1] is listed as 11.4%.
Take `CN(C)CCc1c[nH]c2cccc(OC(=O)[C@H]3C[C@@H]3C(=O)Oc3cccc4[nH]cc(CCN(C)C)c34)c12` [drawing 54]: the “% parent compound” value in series [2] is listed as 95.5%.
With `CN(C)CCc1c[nH]c2cccc(OC(=O)[C@H]3C[C@@H]3C(=O)Oc3cccc4[nH]cc(CCN(C)C)c34)c12` [drawing 62], the “Activity relative to psilocin” value in series [3] is on record as “+++”.
With `CN(C)CCc1c[nH]c2cccc(OC(=O)c3ccccc3F)c12` [drawing 63], in series [3], the “Activity relative to psilocin” value was “++”.
Broadly, the Cmax is the highest concentration seen after dosing. On to `CN(C)CCc1c[nH]c2cccc(O)c12` [Psilocin, 4-hydroxy-N,N-dimethyltryptamine], for which the entries for the “% parent compound” value in series [1] and in series [2] were 87.4% and 72.2%, respectively. Also, the “psilocin in the brain at 8-h post-dose” value in series [4] (8-h post-dose) is recorded as “No psilocin in the brain was detected”. The “psilocin plasma concentration (estimate)” value in series [4] (estimate based on other pharmacokinetic data) is given as approximately 5 ng/mL. The concentration at 2 h in series [4] (male, C57BL6, mouse, brain, oral, 3 mg/kg, 2-h post-dose, range over animals, read-out: Psilocin concentration in the brain) is 40 to 78 ng/g; in series [4] (setting [5]), 54 ng/mL. Besides, in series [4] (male, C57BL6, mouse, brain, oral, 3 mg/kg, 2-h post-dose, with estimated plasma concentration of 5 ng/mL, read-out: mean brain/plasma (B/P) ratio), the Kp at 2 h was 11.2 ± 4.3. Further, in series [4] (setting [6]), the Cmax was approximately 5 ng/mL. Further, in series [3], the “Activity relative to psilocin” value is given as “++”.
Consider `CN(C)CCc1c[nH]c2cccc(OC(=O)c3cccc(C(=O)Oc4cccc5[nH]cc(CCN(C)C)c45)c3)c12` [drawing 45], for which the “% parent compound” value in series [1] was 52.1%.
For the molecule `CN(C)CCc1c[nH]c2cccc(OC(=O)CCCC(=O)Oc3cccc4[nH]cc(CCN(C)C)c34)c12` [drawing 44], the “% parent compound” value in series [1] was determined as 71.5%.
For the molecule `CN(C)CCc1c[nH]c2cccc(OC(=O)CCCC(=O)Oc3cccc4[nH]cc(CCN(C)C)c34)c12` [drawing 52], the “% parent compound” value in series [2] was 94.5%.
For the molecule `CN(C)CCc1c[nH]c2cccc(OC(=O)c3cccc(C(=O)Oc4cccc5[nH]cc(CCN(C)C)c45)c3)c12` [drawing 61], in series [3], the “Activity relative to psilocin” value is “+++”.
On to `CN(C)CCc1c[nH]c2cccc(OC(=O)c3ccccc3F)c12` [drawing 55], for which the “% parent compound” value in series [2] is 97.5%.
By AUC is commonly meant concentration integrated over time. As to `CN(C)CCc1c[nH]c2cccc(OC(=O)C(C)(C)C(=O)Oc3cccc4[nH]cc(CCN(C)C)c34)c12` [Test Compound A, bis(3-(2-(dimethylamino)ethyl)-1H-indol-4-yl) 2,2-dimethylmalonate], in series [4] (3.0 mg/kg PO, in words), the “PK profile (absorption, elimination)” value is given as “quick absorption of the compound, but with a long elimination phase” and the “brain penetration of the parent compound” value was “delayed brain penetration of the parent compound”. Moreover, in series [4] (setting [5]), the concentration at 2 h came out at 0.5 ng/mL. Also, the AUC in series [4] (male, C57BL6, mouse, parent compound in plasma, 3.0 mg/kg PO, read-out: Parent PK AUC) was determined as 39 ng·h/mL. The maximum concentration (Cmax) in series [4] (setting [6]) is 4.2 ng/mL. For the same molecule, in series [4] (parent compound in brain, 8 h post-dose (footnote)), the “Parent [brain] at 8 h” value is “**[brain] at 8 h is 6 ng/mL”.
In the case of `CN(C)CCc1c[nH]c2cccc(OC(=O)c3ccc(Br)cc3)c12` [drawing 58], in series [3], the “Activity relative to psilocin” value is reported as “++”.
As to `CN(C)CCc1c[nH]c2cccc(OC(=O)C(C)(C)C(=O)Oc3cccc4[nH]cc(CCN(C)C)c34)c12` [drawing 59], the “Activity relative to psilocin” value in series [3] was “+++”.
Consider `CN(C)CCc1c[nH]c2cccc(OC(=O)CCC(=O)Oc3cccc4[nH]cc(CCN(C)C)c34)c12` [drawing 49], for which the “% parent compound” value in series [2] is reported as 97.1%.
Consider `CN(C)CCc1c[nH]c2cccc(OC(=O)CCC(=O)Oc3cccc4[nH]cc(CCN(C)C)c34)c12` [drawing 57], for which, in series [3], the “Activity relative to psilocin” value is listed as “+++”.
With `CN(C)CCc1c[nH]c2cccc(OC(=O)CCCC(=O)Oc3cccc4[nH]cc(CCN(C)C)c34)c12` [drawing 60], the “Activity relative to psilocin” value in series [3] is “+++”.
`CN(C)CCc1c[nH]c2cccc(OC(=O)c3ccc(Br)cc3)c12` [drawing 50]: the “% parent compound” value in series [2] was 93.8%.
As to `CN(C)CCc1c[nH]c2cccc(OC(=O)CCC(=O)Oc3cccc4[nH]cc(CCN(C)C)c34)c12` [drawing 41], the “% parent compound” value in series [1] is reported as 61.7%.
On to `CN(C)CCc1c[nH]c2cccc(OC(=O)c3cccc(C(=O)Oc4cccc5[nH]cc(CCN(C)C)c45)c3)c12` [drawing 53], for which, in series [2], the “% parent compound” value was 93.5%.
For `CN(C)CCc1c[nH]c2cccc(OC(=O)C(C)(C)C(=O)Oc3cccc4[nH]cc(CCN(C)C)c34)c12` [drawing 51], in series [2], the “% parent compound” value is 94.7%.
Take `CN(C)CCc1c[nH]c2cccc(OC(=O)[C@H]3C[C@@H]3C(=O)Oc3cccc4[nH]cc(CCN(C)C)c34)c12` [drawing 46]: the “% parent compound” value in series [1] worked out at 76.1%.
`CN(C)CCc1c[nH]c2cccc(OC(=O)C(C)(C)C(=O)Oc3cccc4[nH]cc(CCN(C)C)c34)c12` [drawing 43]: the “% parent compound” value in series [1] was determined as 86.8%.
For `CN(C)CCc1c[nH]c2cccc(OC(=O)CCCC(=O)Oc3cccc4[nH]cc(CCN(C)C)c34)c12` [Test Compound B, bis(3-(2-(dimethylamino)ethyl)-1H-indol-4-yl) glutarate], in series [4] (3.0 mg/kg PO, in words), the “PK profile (absorption, elimination)” value is “good PK profile as a psilocin prodrug” and the “parent compound detected in plasma or brain samples” value is reported as “no parent compound was detected in any of the plasma or brain samples”. Besides, the concentration at 2 h in series [4] (setting [5]) is 0 ng/mL. In series [4] (plasma and brain, in words), the “psilocin detected after administration of test compound” value is on record as “psilocin was detected in quantifiable amounts”.
`CN(C)CCc1c[nH]c2cccc(OC(=O)c3ccc(Br)cc3)c12` [drawing 42]: the “% parent compound” value in series [1] was 9.1%.
